What was measured:
heterotrophic bacteria = experiment: Cooling tower field trial, Example 2: heterotrophic bacteria plate counts; settings: slug dose 3 times/week, 0.5 ppm free Cl2; cooling tower water
Text: (§1) The effectiveness of DBDMH and of BCDMH in microbiological control in cooling tower water was investigated in comparative tests. The cooling tower consisted of two 500-ton units in a crossflow design. The total system-contained volume was 14,000 gallons, and the tower contained medium efficiency film fill. Water from the tower cooled the coils of two 300-ton air conditioners (chillers). The tower typically operated at a pH of about 9.1 and 4 cycles of concentration. Blowdown was controlled by conductivity. Make-up water consisted of softened city water and which was of good quality. The make-up water was very low in calcium (<10 mg/L) but high in pH (8.7). The alkalinity was 145 mg/L (as CaCO3), and the silica level was 28 mg/L. The tower employed a conventional polyphosphate/molybdate/phosphonate program to provide corrosion and deposit control.
The BCDMH (20 lbs) was introduced to the water using 20-gram, 1-inch tablets charged to a solid halogen feeder (Neptune model BT-40, Neptune Chemical Pump Co., Inc., Lansdale, Pa.). Before each dose, the cooling tower water was sampled and enumerated for heterotrophic bacteria plate counts. Then the tower was slug dosed three times a week with BCDMH. Slug dosing was accomplished by diverting through the feeder containing the tablets a sidestream of the recirculating water for about 1 to 5 hours until a “free chlorine” dose of about 0.5 mg/L (as “free chlorine”) was obtained. The “total chlorine” dose was measured at the same time. After each dose the cooling water was sampled and enumerated for heterotrophic bacteria plate counts. As necessary, the feeder was replenished with more BCDMH tablets.
For example, before the biocide dose the bacteria levels in the bulk water ranged from 10^5 to 10^4 CFUs/mL. After the biocide dose the bacteria levels in the bulk water were reduced to 10^4 to 10^3.
After emptying the feeder of BCDMH tablets, 20 lbs of DBDMH granules was charged into the feeder. Thereupon the same procedure as described above for the BCDMH was carried out except for the fact that is was unnecessary to add any additional DBDMH to the feeder during the 30-day test period. In fact, the total weight of DBDMH consumed during the test was only 7 lbs.

aerobic bacteria = experiment: Cooling tower field trial of 51 days, Example 3: bacteria levels
Text: as §1, with “Using the same cooling tower as used in Example 2, the effectiveness” for “The effectiveness”, “of 1,3-dibromo-5,5-dimethylhydantoin” for “of DBDMH and of BCDMH”, “was investigated. As noted above, the” for “was investigated in comparative tests. The”
The 1,3-dibromo-5,5-dimethylhydantoin was introduced to the water using granules charged to a solid halogen feeder (Neptune model BT-40, Neptune Chemical Pump Co., Inc., Lansdale, Pa.). The field trial lasted 51 days. The tower was slug dosed three times a week with 1,3-dibromo-5,5-dimethylhydantoin. Slug dosing was accomplished by diverting a sidestream of the recirculating water through the feeder containing the granules for about 1 to 5 hours until a total halogen residual of about 0.75 mg/L (as Cl2) was obtained. This biocide program reduced bacterial levels in the bulk water by an average of 2 orders of magnitude, with bacteria levels in the bulk water after the biocide dose ranging from 10^1 to 10^3 CFUs/mL.
The results from the average of several analyses conducted during the course of this field trial using DBDMH were as follows: In the microbiological tests, the levels of aerobic bacteria were in the range of 6×10^0 to 3×10^3 CFUs/mL in the cooling tower water and 10^0 in the make-up water. […]

[1] = Iodometric titration of clear saturated stock solutions; assay type: physicochemical; settings: 1 gram powder slurried in 100 mL deionized water, stirred 20 minutes, filtered
Description: Stock solutions of DBDMH and of BCDMH were prepared by slurrying 1 gram of the respective powders in 100 mL of deionized water. After stirring for 20 minutes, the insolubles were filtered to yield clear saturated stock solutions of DBDMH and BCDMH, respectively. Iodometric titration of the stock solutions using the potassium iodide-sodium thiosulfate method indicated the DBDMH solution contained 580 mg/L (as total chlorine), and the BCDMH solution contained 1100 mg/L (as total chlorine).

SMILES: CC1(C)C(=O)N(Br)C(=O)N1Br [DBDMH, 1,3-dibromo-5,5-dimethylhydantoin]
- Bacteria reduction (heterotrophic bacteria): 1.5-2 logs
- levels of aerobic bacteria (aerobic bacteria; in the cooling tower water, several analyses during field trial): 6×10^0 to 3×10^3 CFUs/mL
- bacteria levels in the bulk water after the biocide dose (aerobic bacteria; slug dosed three times a week to total halogen residual about 0.75 mg/L (as Cl2)): 10^1 to 10^3 CFUs/mL
- average reduction of bacterial levels in the bulk water (aerobic bacteria; slug dosed three times a week to total halogen residual about 0.75 mg/L (as Cl2), 51 days): 2 orders of magnitude
- halogen content of saturated stock solution (as total chlorine) [1]: 580 mg/L

Source: patent US7579018B2, “Microbiological control in aqueous systems” (Albemarle Corporation, priority 2000, dated 2009)
